Columns and labels:
[1] = target: Cytochrome P450 2C9 (Homo sapiens, UniProt P11712); assay: Activity of human recombinant CYP2C9 expressed in microsomes isolated from human AHH-1 cells assessed as enzyme-mediated compound formation treated with Lu AA21004 at 8 to 50 uM after 120 mins by HPLC/MS-MS analysis in presence of NADPH regenerating system with NADP+; format: ADME, cell-free; settings: 2 h
[2] = test system: Liver microsome; assay: Drug metabolism in phenotyped human liver microsomes assessed as formation of 3-methyl-4-(2-(piperazin-1-yl)phenylthio)benzoic acid at 8 to 50 uM after 15 mins by HPLC/MS-MS analysis in presence of NADPH regenerating system with NADP+; format: ADME; settings: 0.25 h
[3] = (§1) Drug metabolism in pooled human liver S9 fractions assessed as formation of 3-methyl-4-(2-(piperazin-1-yl)phenylthio)benzoic acid at 2 to 50 uM after 20 mins by HPLC/MS-MS analysis in presence of NADPH regenerating system with NAD+ and xanthine oxidase inhibitor allopurinol; format: ADME, subcellular, Liver S9 fraction; settings: s9, 20 min
[4] = test system: Liver microsome; assay: Intrinsic clearance in pooled human liver microsomes assessed as Vmax(app)/Km(app) for formation of 3-methyl-4-(2-(piperazin-1-yl)phenylthio)benzoic acid per mg of protein after 20 mins by Michaelis-Menten plot analysis in presence of NADPH regenerating system with NADP+; format: ADME
[5] = as §1, with “NAD+, aldehyde dehydrogenase inhibitor disulfiram, aldehyde” for “NAD+ and xanthine”, “raloxifene and alcohol dehydrogenase inhibitor 4-methylpyrazole” for “allopurinol”; format: ADME, subcellular, Liver S9 fraction; settings: s9, 20 min
[6] = target: T1, Cytochrome P450 2D6 (Homo sapiens, UniProt P10635); assay: (§2) Activity of human recombinant CYP2D6 expressed in microsomes isolated from human AHH-1 cells assessed as enzyme-mediated compound formation treated with Lu AA21004 at 8 to 50 uM after 120 mins by HPLC/MS-MS analysis in presence of NADPH regenerating system with NADP+; format: ADME, cell-free; settings: 2 h
[7] = target: Liver microsome; assay: Uncompetitive substrate inhibition in pooled human liver microsomes assessed as formation of 3-methyl-4-(2-(piperazin-1-yl)phenylthio)benzoic acid after 20 mins by Michaelis-Menten plot analysis in presence of NADPH regenerating system with NADP+; format: ADME
[8] = test system: Liver microsome; assay: Drug metabolism in pooled human liver microsomes assessed as formation of 3-methyl-4-(2-(piperazin-1-yl)phenylthio)benzoic acid per mg of protein after 20 mins by Michaelis-Menten plot analysis in presence of NADPH regenerating system with NADP+; format: ADME
[9] = test system: Liver microsome; assay: Drug level in pooled human liver microsomes treated with Lu AA21004 at 100 uM after 30 to 180 mins by HPLC/MS-MS analysis in presence of NADPH regenerating system with NADP+; format: ADME
[10] = Drug metabolism in pooled human liver S9 fractions assessed as formation of 3-methyl-4-(2-(piperazin-1-yl)phenylthio)benzoic acid per mg of protein after 20 mins by Michaelis-Menten plot analysis in presence of NADPH regenerating system with NADP+; format: ADME, subcellular, Liver S9 fraction; settings: s9, 20 min
[11] = test system: Liver microsome; assay: Drug metabolism in human liver microsomes assessed as formation of 3-methyl-4-(2-(piperazin-1-yl)phenylthio)benzoic acid at 50 uM after 20 mins by HPLC/MS-MS analysis in presence of NADPH regenerating system with NADP+; format: ADME
[12] = Drug metabolism in human liver S9 fractions assessed as formation of 3-methyl-4-(2-(piperazin-1-yl)phenylthio)benzoic acid at 8 to 50 uM after 20 mins by HPLC/MS-MS analysis in absence of NADPH regenerating system with NAD+; format: ADME, tissue-based; settings: s9, 20 min
[13] = Drug metabolism in human liver S9 fractions assessed as formation of 3-methyl-4-(2-(piperazin-1-yl)phenylthio)benzoic acid at 8 to 50 uM after 20 mins by HPLC/MS-MS analysis in presence of NADPH regenerating system with NAD+; format: ADME, subcellular, Liver S9 fraction; settings: s9, 20 min
[14] = test system: Liver microsome; assay: Drug level in phenotyped human liver microsomes treated with Lu AA21004 at 8 to 50 uM after 60 mins by HPLC/MS-MS analysis in presence of NADPH regenerating system with NADP+; format: ADME; settings: 1 h
[15] = Intrinsic clearance in pooled human liver S9 fractions assessed as Vmax(app)/Km(app) for formation of 3-methyl-4-(2-(piperazin-1-yl)phenylthio)benzoic acid per mg of protein after 20 mins by Michaelis-Menten plot analysis in presence of NADPH regenerating system with NADP+; format: ADME, subcellular, Liver S9 fraction; settings: s9, 20 min
[16] = Drug metabolism in pooled human liver S9 fractions assessed as formation of 3-methyl-4-(2-(piperazin-1-yl)phenylthio)benzoic acid after 20 mins by Michaelis-Menten plot analysis in presence of NADPH regenerating system with NADP+; format: ADME, subcellular, Liver S9 fraction; settings: s9, 20 min, read-out: Km(app)
[17] = test system: Liver microsome; assay: Drug metabolism in human liver microsomes assessed as formation of 3-methyl-4-(2-(piperazin-1-yl)phenylthio)benzoic acid at 50 uM after 20 mins by HPLC/MS-MS analysis in absence of NADPH regenerating system with NADP+; format: ADME
[18] = test system: Liver microsome; assay: Drug metabolism in pooled human liver microsomes assessed as formation of 3-methyl-4-(2-(piperazin-1-yl)phenylthio)benzoic acid after 20 mins by Michaelis-Menten plot analysis in presence of NADPH regenerating system with NADP+; format: ADME; settings: read-out: Km(app)
[19] = target: Cytochrome P450 2C19 (Homo sapiens, UniProt P33261); assay: Activity of human recombinant CYP2C19 expressed in microsomes isolated from human AHH-1 cells assessed as enzyme-mediated compound formation treated with Lu AA21004 at 8 to 50 uM after 120 mins by HPLC/MS-MS analysis in presence of NADPH regenerating system with NADP+; format: ADME, cell-free; settings: 2 h
[20] = target: T2, Cytochrome P450 2B6 (Homo sapiens, UniProt P20813); assay: Activity of human recombinant CYP2B6 expressed in microsomes isolated from human AHH-1 cells assessed as enzyme-mediated compound formation treated with Lu AA21004 at 8 to 50 uM after 120 mins by HPLC/MS-MS analysis in presence of NADPH regenerating system with NADP+; format: ADME, cell-free; settings: 2 h
T2 sequence (P20813 whole entry): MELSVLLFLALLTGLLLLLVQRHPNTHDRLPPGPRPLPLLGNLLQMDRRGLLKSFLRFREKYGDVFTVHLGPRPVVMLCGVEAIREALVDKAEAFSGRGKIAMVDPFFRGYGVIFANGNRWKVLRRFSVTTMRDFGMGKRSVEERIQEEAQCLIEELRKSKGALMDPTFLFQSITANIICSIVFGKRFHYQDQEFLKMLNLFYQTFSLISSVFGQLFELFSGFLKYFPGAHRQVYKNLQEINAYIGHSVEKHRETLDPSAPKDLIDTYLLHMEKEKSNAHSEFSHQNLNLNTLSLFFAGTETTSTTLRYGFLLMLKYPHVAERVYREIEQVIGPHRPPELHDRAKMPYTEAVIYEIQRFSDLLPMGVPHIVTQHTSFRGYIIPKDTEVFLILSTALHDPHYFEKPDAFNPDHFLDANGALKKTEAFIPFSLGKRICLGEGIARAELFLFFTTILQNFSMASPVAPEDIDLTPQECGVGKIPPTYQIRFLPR

[21] = test system: Liver microsome; assay: Drug level in phenotyped human liver microsomes treated with (3-methyl-4-(2-(piperazin-1-yl)phenylthio)phenyl)methanol at 8 to 50 uM after 15 mins by HPLC/MS-MS analysis in presence of NADPH regenerating system with NADP+; format: ADME; settings: 0.25 h
[22] = target: T1, Cytochrome P450 2D6; assay: as §2, with “(3-methyl-4-(2-(piperazin-1-yl)phenylthio)phenyl)methanol” for “Lu AA21004”; format: ADME, cell-free; settings: 2 h
[23] = test system: Liver; assay: Drug level in human liver S9 fractions treated with (3-methyl-4-(2-(piperazin-1-yl)phenylthio)phenyl)methanol at 8 to 50 uM after 20 mins by HPLC/MS-MS analysis in absence of NADPH regenerating system with NAD+; format: ADME, tissue-based; settings: s9, 20 min
[24] = Drug level in pooled human liver S9 fractions treated with (3-methyl-4-(2-(piperazin-1-yl)phenylthio)phenyl)methanol at 2 to 50 uM after 20 mins by HPLC/MS-MS analysis in presence of NADPH regenerating system with NAD+ and xanthine oxidase inhibitor allopurinol; format: ADME, subcellular, Liver S9 fraction; settings: s9, 20 min
[25] = test system: Liver microsome; assay: Drug level in human liver microsomes treated with (3-methyl-4-(2-(piperazin-1-yl)phenylthio)phenyl)methanol at 50 uM after 20 mins by HPLC/MS-MS analysis in presence of NADPH regenerating system with NADP+; format: ADME
[26] = Drug level in human liver S9 fractions treated with (3-methyl-4-(2-(piperazin-1-yl)phenylthio)phenyl)methanol at 8 to 50 uM after 20 mins by HPLC/MS-MS analysis in presence of NADPH regenerating system with NAD+; format: ADME, subcellular, Liver S9 fraction; settings: s9, 20 min
[27] = test system: Liver microsome; assay: Drug level in human liver microsomes treated with (3-methyl-4-(2-(piperazin-1-yl)phenylthio)phenyl)methanol at 50 uM after 20 mins by HPLC/MS-MS analysis in absence of NADPH regenerating system with NADP+; format: ADME
[28] = target: T3, Cytochrome P450 2C8 (Homo sapiens, UniProt P10632); assay: Activity of human recombinant CYP2C8 expressed in microsomes isolated from human AHH-1 cells assessed as enzyme-mediated compound formation treated with Lu AA21004 at 8 to 50 uM after 120 mins by HPLC/MS-MS analysis in presence of NADPH regenerating system with NADP+; format: ADME, cell-free; settings: 2 h
T3 sequence (P10632 whole entry): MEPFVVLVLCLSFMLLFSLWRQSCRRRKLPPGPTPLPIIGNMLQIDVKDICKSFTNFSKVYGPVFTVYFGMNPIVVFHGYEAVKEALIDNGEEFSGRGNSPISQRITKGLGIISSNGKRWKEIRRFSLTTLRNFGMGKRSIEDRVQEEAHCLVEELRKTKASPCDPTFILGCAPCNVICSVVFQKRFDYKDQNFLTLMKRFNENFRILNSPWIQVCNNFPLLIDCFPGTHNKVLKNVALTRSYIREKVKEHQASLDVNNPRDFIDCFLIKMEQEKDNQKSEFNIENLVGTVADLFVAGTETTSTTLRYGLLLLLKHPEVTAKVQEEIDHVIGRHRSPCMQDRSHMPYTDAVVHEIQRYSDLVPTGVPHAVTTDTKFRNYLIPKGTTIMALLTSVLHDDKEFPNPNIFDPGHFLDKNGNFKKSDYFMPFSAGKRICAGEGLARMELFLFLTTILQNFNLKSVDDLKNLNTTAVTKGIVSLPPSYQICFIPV

[29] = target: Cytochrome P450 3A4 (Homo sapiens, UniProt P08684); assay: Activity of human recombinant CYP3A4 expressed in microsomes isolated from human AHH-1 cells assessed as enzyme-mediated compound formation treated with Lu AA21004 at 8 to 50 uM after 120 mins by HPLC/MS-MS analysis in presence of NADPH regenerating system with NADP+; format: ADME, cell-free; settings: 2 h
[30] = target: T4, Cytochrome P450 2A6 (Homo sapiens, UniProt P11509); assay: Activity of human recombinant CYP2A6 expressed in microsomes isolated from human AHH-1 cells assessed as enzyme-mediated compound formation treated with Lu AA21004 at 8 to 50 uM after 120 mins by HPLC/MS-MS analysis in presence of NADPH regenerating system with NADP+; format: ADME, cell-free; settings: 2 h
T4 sequence (P11509 whole entry): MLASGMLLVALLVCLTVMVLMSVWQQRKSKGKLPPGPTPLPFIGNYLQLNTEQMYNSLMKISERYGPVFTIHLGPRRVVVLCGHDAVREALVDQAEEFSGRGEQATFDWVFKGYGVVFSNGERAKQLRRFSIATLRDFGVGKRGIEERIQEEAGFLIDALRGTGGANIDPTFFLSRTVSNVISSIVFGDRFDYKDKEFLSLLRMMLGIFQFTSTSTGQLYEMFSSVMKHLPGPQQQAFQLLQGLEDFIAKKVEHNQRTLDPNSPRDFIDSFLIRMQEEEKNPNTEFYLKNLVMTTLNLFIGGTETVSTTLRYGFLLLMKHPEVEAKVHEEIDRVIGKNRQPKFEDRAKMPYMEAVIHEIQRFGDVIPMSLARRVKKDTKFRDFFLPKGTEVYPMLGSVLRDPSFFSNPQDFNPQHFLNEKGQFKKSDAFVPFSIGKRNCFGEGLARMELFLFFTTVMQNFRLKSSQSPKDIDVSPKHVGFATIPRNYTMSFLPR

Cytochrome P450 2C19, sequence (P33261 whole entry): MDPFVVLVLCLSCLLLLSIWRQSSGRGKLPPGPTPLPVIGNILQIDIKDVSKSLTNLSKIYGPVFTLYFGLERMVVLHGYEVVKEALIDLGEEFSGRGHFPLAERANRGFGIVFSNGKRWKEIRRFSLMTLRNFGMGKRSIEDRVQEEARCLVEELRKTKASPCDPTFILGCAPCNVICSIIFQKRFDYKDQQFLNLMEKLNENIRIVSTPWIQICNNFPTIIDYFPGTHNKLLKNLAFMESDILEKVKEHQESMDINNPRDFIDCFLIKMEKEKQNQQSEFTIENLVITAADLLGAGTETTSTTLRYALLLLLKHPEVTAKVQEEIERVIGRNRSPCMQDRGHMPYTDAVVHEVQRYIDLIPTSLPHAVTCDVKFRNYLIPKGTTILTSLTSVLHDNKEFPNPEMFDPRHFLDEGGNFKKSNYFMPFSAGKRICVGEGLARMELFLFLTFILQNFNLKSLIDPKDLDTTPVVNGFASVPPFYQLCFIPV
T1 sequence (P10635 whole entry): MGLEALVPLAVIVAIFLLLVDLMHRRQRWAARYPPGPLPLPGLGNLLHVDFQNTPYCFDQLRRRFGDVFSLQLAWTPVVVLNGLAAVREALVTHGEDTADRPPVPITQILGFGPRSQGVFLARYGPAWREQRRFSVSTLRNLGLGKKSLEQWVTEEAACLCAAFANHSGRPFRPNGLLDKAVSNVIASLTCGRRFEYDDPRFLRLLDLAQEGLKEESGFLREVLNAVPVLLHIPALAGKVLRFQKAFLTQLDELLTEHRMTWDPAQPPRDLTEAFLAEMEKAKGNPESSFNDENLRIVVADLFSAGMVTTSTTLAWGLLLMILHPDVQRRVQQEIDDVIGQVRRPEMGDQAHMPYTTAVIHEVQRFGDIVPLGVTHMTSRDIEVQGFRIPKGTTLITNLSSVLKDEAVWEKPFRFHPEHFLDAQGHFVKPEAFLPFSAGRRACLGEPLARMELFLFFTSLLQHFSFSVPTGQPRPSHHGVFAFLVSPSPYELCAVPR
Cytochrome P450 2C9, sequence (P11712 whole entry): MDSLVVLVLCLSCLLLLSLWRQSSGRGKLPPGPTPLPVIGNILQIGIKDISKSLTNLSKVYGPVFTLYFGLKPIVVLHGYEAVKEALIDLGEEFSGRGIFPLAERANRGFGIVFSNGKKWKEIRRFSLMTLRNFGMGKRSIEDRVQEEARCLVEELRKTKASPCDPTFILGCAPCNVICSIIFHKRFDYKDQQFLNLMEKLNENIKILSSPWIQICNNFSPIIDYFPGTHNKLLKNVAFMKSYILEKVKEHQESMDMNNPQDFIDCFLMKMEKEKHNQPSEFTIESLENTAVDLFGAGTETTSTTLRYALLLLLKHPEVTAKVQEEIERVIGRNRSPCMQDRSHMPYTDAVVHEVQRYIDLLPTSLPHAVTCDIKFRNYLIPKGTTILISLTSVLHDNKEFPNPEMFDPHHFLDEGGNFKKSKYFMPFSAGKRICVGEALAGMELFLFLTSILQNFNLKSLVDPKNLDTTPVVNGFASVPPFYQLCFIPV
Cytochrome P450 3A4, sequence (P08684 whole entry): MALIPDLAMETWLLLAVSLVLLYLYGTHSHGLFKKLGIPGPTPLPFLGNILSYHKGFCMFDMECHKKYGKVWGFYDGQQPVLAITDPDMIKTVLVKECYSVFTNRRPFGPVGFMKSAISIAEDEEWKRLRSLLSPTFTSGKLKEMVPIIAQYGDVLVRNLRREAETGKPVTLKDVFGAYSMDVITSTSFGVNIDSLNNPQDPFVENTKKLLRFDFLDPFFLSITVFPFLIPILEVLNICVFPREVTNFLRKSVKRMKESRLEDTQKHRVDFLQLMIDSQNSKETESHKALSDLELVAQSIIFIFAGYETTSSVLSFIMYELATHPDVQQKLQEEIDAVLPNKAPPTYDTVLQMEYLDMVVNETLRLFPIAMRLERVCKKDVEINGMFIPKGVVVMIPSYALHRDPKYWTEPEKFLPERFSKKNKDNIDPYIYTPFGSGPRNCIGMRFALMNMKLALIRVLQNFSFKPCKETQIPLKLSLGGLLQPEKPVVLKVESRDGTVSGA

Compound: Cc1cc(CO)ccc1Sc1ccccc1N1CCNCC1
- Drug metabolism [1]: metabolite_detected
- Drug metabolism [2]: metabolite_detected
- Drug metabolism [3]: metabolite_detected
- Vmax/Km [4]: 0.621 µL/min
- Drug metabolism [5]: metabolite_not_detected
- Drug metabolism [6]: metabolite_detected
- Ki [7]: 275 µM
- Vmax(app) [8]: 59 pmol/min
- Drug metabolism [9]: metabolite_detected
- Vmax(app) [10]: 1567 pmol/min
- Drug metabolism [11]: metabolite_detected
- Drug metabolism [12]: metabolite_detected
- Drug metabolism [13]: metabolite_detected
- Drug metabolism [14]: metabolite_detected
- Vmax/Km [15]: 922 µL/min
- Km [16]: 1.7 µM
- Drug metabolism [17]: metabolite_detected
- Km [18]: 95 µM
- Drug metabolism [19]: metabolite_detected

Compound: Cc1ccc(Sc2ccccc2N2CCN(O)CC2)c(C)c1
- Drug metabolism [1]: metabolite_detected
- Drug metabolism [20]: metabolite_detected
- Drug metabolism [9]: metabolite_detected
- Drug metabolism [14]: metabolite_detected
- Drug metabolism [19]: metabolite_detected

Compound: Cc1cc(C(=O)O)ccc1Sc1ccccc1N1CCNCC1
- Drug metabolism [21]: metabolite_detected
- Drug metabolism [6]: metabolite_detected
- Drug metabolism [22]: metabolite_detected
- Drug metabolism [23]: metabolite_detected
- Drug metabolism [9]: metabolite_detected
- Drug metabolism [24]: metabolite_detected
- Drug metabolism [14]: metabolite_detected
- Drug metabolism [25]: metabolite_detected
- Drug metabolism [26]: metabolite_detected
- Drug metabolism [27]: metabolite_detected

Compound: Cc1ccc([S+]([O-])c2ccccc2N2CCNCC2)c(C)c1.O=C(O)/C=C/C(=O)O (centres undefined)
- Drug metabolism [28]: metabolite_detected
- Drug metabolism [29]: metabolite_detected
- Drug metabolism [9]: metabolite_detected
- Drug metabolism [14]: metabolite_detected
- Drug metabolism [30]: metabolite_detected

Compound: Cc1ccc(Sc2cc([O-])ccc2N2CCNCC2)c(C)c1.[Na+]
- Drug metabolism [1]: metabolite_detected
- Drug metabolism [6]: metabolite_detected
- Drug metabolism [9]: metabolite_detected
- Drug metabolism [14]: metabolite_detected
- Drug metabolism [19]: metabolite_detected
